From ChEMBL document CHEMBL1143243, “Design, synthesis, evaluation, and crystallographic-based structural studies of HIV-1 protease inhibitors with reduced response to the V82A mutation” (J Med Chem, 2008)

Columns and labels:
[1] = molecular target: Protease (Human immunodeficiency virus 1, UniProt Q9YQ12); test: Binding affinity to HIV1 protease
[2] = test system: Human immunodeficiency virus 1; test: Ratio of Ki for HIV1 protease V82A mutant to Ki for wild type HIV1 protease
[3] = molecular target: Human immunodeficiency virus type 1 protease (Human immunodeficiency virus 1, UniProt Q72874, V82A); test: Binding affinity to HIV1 protease V82A mutant

Sequence of Protease (Q9YQ12 whole entry): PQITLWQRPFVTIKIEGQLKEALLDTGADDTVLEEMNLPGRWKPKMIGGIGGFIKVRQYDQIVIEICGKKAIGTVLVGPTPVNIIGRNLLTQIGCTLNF

Row | SMILES | Ki [1] [nM] | Ratio Ki [2] | Ki [3] [nM]
1 | CC(C)[C@H](NC(=O)N(C)Cc1ccccn1)C(=O)N[C@@H](Cc1ccccc1)[C@H](O)[C@@H](O)[C@H](Cc1ccccc1)NC(=O)[C@@H](NC(=O)N(C)Cc1ccccn1)C(C)C [A-76928] | 1.3 | 7 | 9
2 | CC(C)[C@H](NC(=O)N(C)Cc1ccccn1)C(=O)N[C@@H](CC1CCCCC1)[C@H](O)[C@@H](O)[C@H](CC1CCCCC1)NC(=O)[C@@H](NC(=O)N(C)Cc1ccccn1)C(C)C | 6 | 2 | 12
3 | CC(C)[C@H](NC(=O)N(C)Cc1ccccn1)C(=O)N[C@@H](Cc1ccccc1)[C@H](O)[C@@H](O)[C@H](CC1CCCCC1)NC(=O)[C@@H](NC(=O)N(C)Cc1ccccn1)C(C)C | 3.2 | 4 | –
